Assay results as given in ChEMBL document CHEMBL4507264, “Data for DCP probe BAY-7598” (2021).

How the values were obtained:
Conditions in all cases: Compound concentration 1000.0 nM
[1] = tested on: Tyrosine-protein kinase ABL1 (Homo sapiens), P00519 [F317L]
[2] = tested on: ALK tyrosine kinase receptor (Homo sapiens), Q9UM73 [L1196M]
[3] = target: Tyrosine-protein kinase Blk (Homo sapiens) (UniProt P51451)
[4] = target: Bone morphogenetic protein receptor type-1B (Homo sapiens) (UniProt O00238)
[5] = target: Serine/threonine-protein kinase BRSK1 (Homo sapiens) (UniProt Q8TDC3)
[6] = target: Calcium/calmodulin-dependent protein kinase type II subunit gamma (Homo sapiens) (UniProt Q13555)
[7] = target: Cyclin-dependent kinase 13 (Homo sapiens) (UniProt Q14004)
[8] = target: Cyclin-dependent kinase-like 1 (Homo sapiens) (UniProt Q00532)
[9] = target: Serine/threonine-protein kinase MRCK gamma (Homo sapiens) (UniProt Q6DT37)
[10] = target: Eukaryotic translation initiation factor 2-alpha kinase 1 (Homo sapiens) (UniProt Q9BQI3)
[11] = target: Ephrin type-A receptor 7 (Homo sapiens) (UniProt Q15375)
[12] = tested on: Receptor-type tyrosine-protein kinase FLT3 (Homo sapiens), P36888 [K663Q]
[13] = target: Tyrosine-protein kinase Fyn (Homo sapiens) (UniProt P06241)
[14] = target: Inhibitor of nuclear factor kappa-B kinase subunit epsilon (Homo sapiens) (UniProt Q14164)
[15] = target: Interleukin-1 receptor-associated kinase 1 (Homo sapiens) (UniProt P51617)
[16] = target: Interleukin-1 receptor-associated kinase 4 (Homo sapiens) (UniProt Q9NWZ3)
[17] = target: Tyrosine-protein kinase Lyn (Homo sapiens) (UniProt P07948)
[18] = target: Mitogen-activated protein kinase kinase kinase 15 (Homo sapiens) (UniProt Q6ZN16)
[19] = target: Dual specificity mitogen-activated protein kinase kinase 1 (Homo sapiens) (UniProt Q02750)
[20] = target: Dual specificity mitogen-activated protein kinase kinase 3 (Homo sapiens) (UniProt P46734)
[21] = target: Tyrosine-protein kinase Mer (Homo sapiens) (UniProt Q12866)
[22] = tested on: Hepatocyte growth factor receptor (Homo sapiens), P08581 [M1250T]
[23] = target: Serine/threonine-protein kinase 3 (Homo sapiens) (UniProt Q13188)
[24] = target: Myosin-IIIa (Homo sapiens) (UniProt Q8NEV4)
[25] = target: Myosin-IIIb (Homo sapiens) (UniProt Q8WXR4)
[26] = target: Serine/threonine-protein kinase OSR1 (Homo sapiens) (UniProt O95747)
[27] = target: Mitogen-activated protein kinase 14 (Homo sapiens) (UniProt Q16539)
[28] = target: Cyclin-dependent kinase 14 (Homo sapiens) (UniProt O94921)
[29] = target: Phosphatidylinositol 4,5-bisphosphate 3-kinase catalytic subunit alpha isoform (Homo sapiens) (UniProt P42336)
[30] = tested on: Phosphatidylinositol 4,5-bisphosphate 3-kinase catalytic subunit alpha isoform (Homo sapiens), P42336 [E545K]
[31] = tested on: Phosphatidylinositol 4,5-bisphosphate 3-kinase catalytic subunit alpha isoform (Homo sapiens), P42336 [M1043I]
[32] = target: Phosphatidylinositol 4-kinase beta (Homo sapiens) (UniProt Q9UBF8)
[33] = target: Serine/threonine-protein kinase pim-1 (Homo sapiens) (UniProt P11309)
[34] = target: Phosphatidylinositol 4-phosphate 5-kinase type-1 alpha (Homo sapiens) (UniProt Q99755)
[35] = target: Serine/threonine-protein kinase PLK3 (Homo sapiens) (UniProt Q9H4B4)
[36] = target: cGMP-dependent protein kinase 2 (Homo sapiens) (UniProt Q13237)
[37] = target: Dual serine/threonine and tyrosine protein kinase (Homo sapiens) (UniProt Q6XUX3)
[38] = target: Serine/threonine-protein kinase Sgk1 (Homo sapiens) (UniProt O00141)
[39] = target: SRSF protein kinase 2 (Homo sapiens) (UniProt P78362)
[40] = target: Serine/threonine-protein kinase TAO1 (Homo sapiens) (UniProt Q7L7X3)
[41] = target: Angiopoietin-1 receptor (Homo sapiens) (UniProt Q02763)
[42] = target: High affinity nerve growth factor receptor (Homo sapiens) (UniProt P04629)
[43] = target: BDNF/NT-3 growth factors receptor (Homo sapiens) (UniProt Q16620)
[44] = target: Wee1-like protein kinase 2 (Homo sapiens) (UniProt P0C1S8)
[45] = target: Serine/threonine-protein kinase WNK1 (Homo sapiens) (UniProt Q9H4A3)

Measured: residual activity

Phosphatidylinositol 4-kinase beta (Homo sapiens), sequence (Q9UBF8 2-816 limits assumed): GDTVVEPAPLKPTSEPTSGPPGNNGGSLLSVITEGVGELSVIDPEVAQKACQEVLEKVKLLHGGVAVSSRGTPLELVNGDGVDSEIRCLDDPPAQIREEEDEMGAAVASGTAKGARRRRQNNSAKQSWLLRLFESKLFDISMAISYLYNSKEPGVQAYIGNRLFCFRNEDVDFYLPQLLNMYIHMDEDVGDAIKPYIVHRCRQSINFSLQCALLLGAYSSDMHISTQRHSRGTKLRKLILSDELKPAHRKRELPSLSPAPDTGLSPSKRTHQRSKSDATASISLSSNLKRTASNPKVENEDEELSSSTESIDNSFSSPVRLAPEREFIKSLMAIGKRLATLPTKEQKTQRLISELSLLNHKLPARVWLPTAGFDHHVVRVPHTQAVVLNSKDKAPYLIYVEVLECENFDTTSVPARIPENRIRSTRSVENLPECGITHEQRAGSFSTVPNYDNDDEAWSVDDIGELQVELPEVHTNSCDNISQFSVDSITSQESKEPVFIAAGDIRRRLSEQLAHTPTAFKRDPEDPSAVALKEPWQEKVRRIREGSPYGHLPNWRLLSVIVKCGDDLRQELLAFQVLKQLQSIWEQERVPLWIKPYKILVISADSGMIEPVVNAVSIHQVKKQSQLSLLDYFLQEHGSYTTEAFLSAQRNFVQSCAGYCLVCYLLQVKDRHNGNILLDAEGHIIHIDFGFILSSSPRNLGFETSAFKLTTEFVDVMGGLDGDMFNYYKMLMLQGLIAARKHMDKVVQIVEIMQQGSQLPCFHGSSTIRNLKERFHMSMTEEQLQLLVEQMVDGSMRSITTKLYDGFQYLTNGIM
Serine/threonine-protein kinase BRSK1 (Homo sapiens), sequence (Q8TDC3 whole entry): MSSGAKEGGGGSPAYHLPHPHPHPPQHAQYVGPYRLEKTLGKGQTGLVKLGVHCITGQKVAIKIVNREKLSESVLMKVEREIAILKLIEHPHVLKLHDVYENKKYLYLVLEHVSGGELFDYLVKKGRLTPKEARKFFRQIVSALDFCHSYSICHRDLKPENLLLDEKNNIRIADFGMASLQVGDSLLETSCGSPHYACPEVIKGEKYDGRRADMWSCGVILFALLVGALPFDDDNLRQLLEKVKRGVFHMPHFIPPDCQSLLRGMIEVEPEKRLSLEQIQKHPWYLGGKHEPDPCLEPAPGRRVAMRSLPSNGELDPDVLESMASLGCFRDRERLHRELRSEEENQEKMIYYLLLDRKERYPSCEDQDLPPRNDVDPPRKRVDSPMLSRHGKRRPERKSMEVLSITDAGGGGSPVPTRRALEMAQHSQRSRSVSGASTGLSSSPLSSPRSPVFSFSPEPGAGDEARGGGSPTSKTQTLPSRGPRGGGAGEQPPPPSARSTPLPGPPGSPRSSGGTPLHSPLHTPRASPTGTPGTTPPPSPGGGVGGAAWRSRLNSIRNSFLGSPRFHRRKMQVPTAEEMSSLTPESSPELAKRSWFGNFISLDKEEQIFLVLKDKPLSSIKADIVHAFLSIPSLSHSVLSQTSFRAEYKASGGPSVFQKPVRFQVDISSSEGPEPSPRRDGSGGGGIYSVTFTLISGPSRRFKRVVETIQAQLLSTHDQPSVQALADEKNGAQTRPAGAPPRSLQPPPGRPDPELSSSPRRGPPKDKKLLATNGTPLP
Cyclin-dependent kinase 14 (Homo sapiens), sequence (O94921 whole entry, canonical isoform): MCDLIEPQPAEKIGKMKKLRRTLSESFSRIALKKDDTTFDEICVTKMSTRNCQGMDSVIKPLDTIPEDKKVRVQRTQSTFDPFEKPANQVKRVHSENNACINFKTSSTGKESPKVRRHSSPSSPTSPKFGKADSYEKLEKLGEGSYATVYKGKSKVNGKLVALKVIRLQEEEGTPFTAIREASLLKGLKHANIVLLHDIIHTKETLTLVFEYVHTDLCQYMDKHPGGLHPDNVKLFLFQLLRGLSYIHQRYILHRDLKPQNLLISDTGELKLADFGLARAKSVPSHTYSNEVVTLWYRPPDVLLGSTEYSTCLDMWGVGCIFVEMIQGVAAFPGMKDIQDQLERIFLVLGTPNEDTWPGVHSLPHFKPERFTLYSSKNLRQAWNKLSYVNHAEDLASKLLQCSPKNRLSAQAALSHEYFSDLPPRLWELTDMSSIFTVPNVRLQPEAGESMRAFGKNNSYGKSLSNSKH
Dual specificity mitogen-activated protein kinase kinase 3 (Homo sapiens), sequence (P46734 whole entry): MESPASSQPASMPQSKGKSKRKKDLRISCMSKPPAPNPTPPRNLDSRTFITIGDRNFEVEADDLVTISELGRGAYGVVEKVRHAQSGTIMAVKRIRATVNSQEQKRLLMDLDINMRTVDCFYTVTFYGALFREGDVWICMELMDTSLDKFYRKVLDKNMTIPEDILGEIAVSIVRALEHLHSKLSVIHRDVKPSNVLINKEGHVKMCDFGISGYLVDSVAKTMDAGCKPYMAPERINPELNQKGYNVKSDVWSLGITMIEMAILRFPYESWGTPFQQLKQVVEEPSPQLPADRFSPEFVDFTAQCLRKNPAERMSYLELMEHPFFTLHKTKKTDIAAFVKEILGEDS
Cyclin-dependent kinase 13 (Homo sapiens), sequence (Q14004 whole entry, looked up): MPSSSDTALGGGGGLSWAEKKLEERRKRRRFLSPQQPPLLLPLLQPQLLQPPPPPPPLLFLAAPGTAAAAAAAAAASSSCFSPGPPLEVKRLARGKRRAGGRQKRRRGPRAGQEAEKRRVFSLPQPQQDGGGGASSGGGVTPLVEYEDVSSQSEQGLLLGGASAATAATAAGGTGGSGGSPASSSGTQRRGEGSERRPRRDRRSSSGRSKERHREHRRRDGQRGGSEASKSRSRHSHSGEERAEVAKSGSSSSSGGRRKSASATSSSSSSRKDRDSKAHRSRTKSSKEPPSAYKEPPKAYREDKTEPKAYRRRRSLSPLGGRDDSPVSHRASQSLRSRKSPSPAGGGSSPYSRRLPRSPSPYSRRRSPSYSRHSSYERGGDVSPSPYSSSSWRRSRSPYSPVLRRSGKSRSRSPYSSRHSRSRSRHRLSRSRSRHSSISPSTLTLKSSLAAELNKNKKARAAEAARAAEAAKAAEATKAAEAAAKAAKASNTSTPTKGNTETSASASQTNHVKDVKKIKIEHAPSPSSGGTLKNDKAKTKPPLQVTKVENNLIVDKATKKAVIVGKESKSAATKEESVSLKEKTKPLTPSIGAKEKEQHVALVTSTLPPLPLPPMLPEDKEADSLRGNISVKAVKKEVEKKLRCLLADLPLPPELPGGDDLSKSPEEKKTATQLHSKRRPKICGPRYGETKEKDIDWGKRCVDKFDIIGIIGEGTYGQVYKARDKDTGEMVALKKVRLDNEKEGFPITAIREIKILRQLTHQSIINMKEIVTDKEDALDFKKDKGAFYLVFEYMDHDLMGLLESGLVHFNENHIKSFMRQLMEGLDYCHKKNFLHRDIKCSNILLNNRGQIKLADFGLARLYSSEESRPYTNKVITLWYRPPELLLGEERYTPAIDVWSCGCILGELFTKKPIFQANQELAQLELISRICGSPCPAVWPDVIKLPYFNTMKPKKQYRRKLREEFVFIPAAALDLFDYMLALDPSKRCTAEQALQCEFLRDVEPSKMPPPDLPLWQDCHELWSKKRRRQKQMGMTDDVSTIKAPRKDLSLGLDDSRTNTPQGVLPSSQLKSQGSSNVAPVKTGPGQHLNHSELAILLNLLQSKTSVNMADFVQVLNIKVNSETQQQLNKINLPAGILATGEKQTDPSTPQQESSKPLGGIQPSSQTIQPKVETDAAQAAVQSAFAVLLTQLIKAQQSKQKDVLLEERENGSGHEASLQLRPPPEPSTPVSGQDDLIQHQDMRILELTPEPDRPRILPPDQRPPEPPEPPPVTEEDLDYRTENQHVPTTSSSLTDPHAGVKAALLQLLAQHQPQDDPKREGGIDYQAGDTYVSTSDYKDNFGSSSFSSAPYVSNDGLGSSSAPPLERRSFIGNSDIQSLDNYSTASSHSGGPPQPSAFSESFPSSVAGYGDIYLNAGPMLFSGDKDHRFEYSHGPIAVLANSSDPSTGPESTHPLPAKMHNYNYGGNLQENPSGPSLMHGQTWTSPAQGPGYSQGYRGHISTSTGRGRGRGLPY
Tyrosine-protein kinase Blk (Homo sapiens), sequence (P51451 2-505 limits assumed): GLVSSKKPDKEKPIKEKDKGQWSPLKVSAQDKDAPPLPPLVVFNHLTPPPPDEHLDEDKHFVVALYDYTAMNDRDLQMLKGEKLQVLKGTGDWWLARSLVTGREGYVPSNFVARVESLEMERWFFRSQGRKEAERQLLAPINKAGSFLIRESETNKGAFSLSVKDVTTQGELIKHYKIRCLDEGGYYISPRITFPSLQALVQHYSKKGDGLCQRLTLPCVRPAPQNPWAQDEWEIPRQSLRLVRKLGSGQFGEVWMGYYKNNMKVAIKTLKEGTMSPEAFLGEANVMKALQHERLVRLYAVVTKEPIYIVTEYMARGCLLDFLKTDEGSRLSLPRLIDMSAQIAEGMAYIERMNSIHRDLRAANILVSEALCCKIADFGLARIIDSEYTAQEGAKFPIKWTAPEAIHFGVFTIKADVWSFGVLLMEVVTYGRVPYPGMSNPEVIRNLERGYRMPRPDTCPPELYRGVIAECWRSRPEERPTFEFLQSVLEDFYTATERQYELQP
Tyrosine-protein kinase Lyn (Homo sapiens), sequence (P07948 2-512 limits assumed): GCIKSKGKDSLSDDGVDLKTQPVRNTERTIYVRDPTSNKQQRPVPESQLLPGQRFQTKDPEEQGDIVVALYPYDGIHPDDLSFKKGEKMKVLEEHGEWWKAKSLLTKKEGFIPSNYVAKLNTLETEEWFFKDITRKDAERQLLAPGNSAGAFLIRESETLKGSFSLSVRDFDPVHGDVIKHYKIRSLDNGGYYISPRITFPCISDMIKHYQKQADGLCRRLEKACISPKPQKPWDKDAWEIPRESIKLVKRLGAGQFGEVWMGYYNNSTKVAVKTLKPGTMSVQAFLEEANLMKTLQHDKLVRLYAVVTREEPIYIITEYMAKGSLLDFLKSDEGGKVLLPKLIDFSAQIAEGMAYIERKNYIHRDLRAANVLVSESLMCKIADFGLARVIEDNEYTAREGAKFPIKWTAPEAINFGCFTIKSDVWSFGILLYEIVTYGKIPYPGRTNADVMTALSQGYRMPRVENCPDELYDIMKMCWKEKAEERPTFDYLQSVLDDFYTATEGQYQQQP

O=C(O)[C@@H]1[C@@H](Cn2nnc3ccccc3c2=O)CC[C@H]1C(=O)c1ccc(OCCC2CCOCC2)cc1 [BAY-694]
inactive: [1] 86% | [2] 93% | [3] 95% | [4] 78% | [5] 100% | [6] 100% | [7] 92% | [8] 100% | [9] 100% | [10] 100% | [11] 100% | [12] 100% | [13] 76% | [14] 100% | [15] 82% | [16] 76% | [17] 97% | [18] 54% | [19] 81% | [20] 92% | [21] 100% | [22] 100% | [23] 100% | [24] 93% | [25] 90% | [26] 100% | [27] 89% | [28] 100% | [29] 100% | [30] 80% | [31] 100% | [32] 83% | [33] 100% | [34] 94% | [35] 87% | [36] 100% | [37] 84% | [38] 74% | [39] 100% | [40] 100% | [41] 100% | [42] 86% | [43] 93% | [44] 100% | [45] 100%

O=C(O)[C@H]1[C@H](Cn2nnc3ccccc3c2=O)CC[C@@H]1C(=O)c1ccc(OCCC2CCOCC2)cc1 [BAY-7598]
inactive: [1] 75% | [2] 81% | [3] 100% | [4] 95% | [5] 78% | [6] 90% | [7] 93% | [8] 99% | [9] 93% | [10] 78% | [11] 100% | [12] 100% | [13] 100% | [14] 90% | [15] 70% | [16] 76% | [17] 92% | [18] 64% | [19] 100% | [20] 90% | [21] 61% | [22] 100% | [23] 91% | [24] 100% | [25] 69% | [26] 77% | [27] 85% | [28] 100% | [29] 100% | [30] 72% | [31] 100% | [32] 93% | [33] 95% | [34] 88% | [35] 100% | [36] 100% | [37] 100% | [38] 100% | [39] 100% | [40] 100% | [41] 86% | [42] 88% | [43] 75% | [44] 100% | [45] 100%
